The values that follow come from patent US20250114350A1, “INHIBITORS OF […] AS ANTIFUNGAL AGENTS” (Regents of the University of Minnesota, priority 2023, published 2025).

The term IC50 denotes the point on the concentration scale where inhibition reaches its midpoint.

In data set [1] the test system is Gfp-Ras1 localization in C. neoformans. The data set can be described thus: Ras1 cellular localization by fluorescent microscopy. The data set is classed as cell-based, Cryptococcus neoformans. The conditions noted are these: sub-lethal concentrations; 0.78 μM (sub-inhibitory). The procedure:
(§1) FIG. 3. CnFTase is the in vivo target of 2f. (A) Ras cellular mislocalization, assessed by epifluorescent microscopy (1000×). Bar=10 μm. Top. […] Bottom. Control patterns of Ras localization with wild-type (left) and ram1Δ deletion (right) strains expressing mCherry-Ras1. […] A C. neoformans strain transformed with the galactose-regulated pGAL7-RAM1 over-expression construct was incubated with glucose (uninduced, bottom), and galactose (induced, top). Antifungal activity was assessed by the relative size of the zone of fungal growth inhibition surrounding sterile discs impregnated with 10 μL of 20 mM 2f dissolved in DMSO (bottom disk) or DMSO alone (top disc).
Compound 2f inhibited FTase activity in vivo. […] Both effects are consistent with CnFTase being the target of Compound 2f, as expected.
Microscopy. […] A drug-free control sample contained 1% DMSO. Ras1 localization in a ram1Δ mutant strain was determined in a similar manner: a ram1Δ mutant and wild-type strain, each expressing mCherry-Ras1 under a constitutive promoter (CBN121 and SKE17) were incubated overnight in YPD medium at 30° C., diluted to OD600 0.1 in YPD, then incubated for 24 hours at 37° C. All cells were visualized and imaged by fluorescent microscopy at 1000× magnification using a Zeiss Imager A1 microscope and Zeiss Axio-Cam MRM digital camera. […]

Data set [2] concerns C. neoformans strain over-expressing CnFTase (pGAL7-RAM1). The data set can be described thus: Disc diffusion assay with galactose-inducible RAM1 over-expression. The conditions noted are these: galactose induced; discs with 10 μL of 20 mM. The data set is classed as cell-based, Cryptococcus neoformans. The procedure: as §1
Molecular Biology. […] To induce C. neoformans mating, strains of opposite mating types were co-cultured on MS medium at 25° C. for seven days (Murashige, T, et al., Physiol Plantarum, 1962, 15, 473-497). A C. neoformans strain with a galactose-inducible RAM1 allele (CBN482) was similarly created with primers designed to create an overlap construct comprising the C. neoformans RAM1 5′ sequence-neomycin resistance cassette-GAL7 promoter-RAM1 coding sequence (FIG. 9) to precisely replace the RAM1 promoter with the GAL7 galactose inducible when introduced into the H99 genome by biolistic transformation.
Disc diffusion assay. […]

In a further data set the target is mammalian FTase (Homo sapiens, UniProt P49354+P49356). The data set can be described thus: Inhibition of mammalian FTase. The data set is classed as biochemical.
Chain of mammalian FTase (P49356 whole entry, one chain of several): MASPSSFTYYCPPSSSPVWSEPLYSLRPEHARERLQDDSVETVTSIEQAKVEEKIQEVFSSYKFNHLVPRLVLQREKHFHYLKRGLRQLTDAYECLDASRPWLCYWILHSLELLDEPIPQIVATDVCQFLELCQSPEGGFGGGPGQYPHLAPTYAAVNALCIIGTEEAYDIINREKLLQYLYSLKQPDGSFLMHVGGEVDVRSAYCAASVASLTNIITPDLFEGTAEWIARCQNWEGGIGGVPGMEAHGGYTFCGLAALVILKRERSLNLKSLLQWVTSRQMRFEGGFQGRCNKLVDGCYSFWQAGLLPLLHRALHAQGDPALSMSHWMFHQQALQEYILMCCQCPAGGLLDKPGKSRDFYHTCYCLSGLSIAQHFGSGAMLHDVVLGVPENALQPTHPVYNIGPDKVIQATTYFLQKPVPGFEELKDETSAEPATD
Another data set relates to C. neoformans biofilms. Description: Biofilm inhibition. The class given is cell-based, Cryptococcus neoformans.
Data set [3] relates to J774A.1 macrophage-like murine cells. The conditions noted are these: mouse, 24 h.
Procedure: Macrophage cytotoxicity assays. […] 2 μL of the serially diluted compound were transferred to a 96-well plate containing 200 μL DMEM (100× dilution). J774A.1, a macrophage-like murine cell line, was incubated in DMEM (Dulbecco's Modified Eagle Medium, Sigma-Aldrich) to 70% confluency, harvested, washed in PBS, then transferred to black, clear-bottom 96-well plates (Greiner) at 10^5 cells/well. Plates were incubated overnight at 37° C. and 5% CO2. The macrophage medium covering the J774A.1 monolayer was replaced with 100 μL of DMEM containing the serially diluted inhibitors (50× dilution) and incubated for 24 h at 37° C. and 5% CO2. Macrophage viability was assessed at 24 h by the addition of 10% AlamarBlue and incubating for 3 h at 37° C. and 5% CO2 prior to fluorescence measurement (FLUORStar Optima plate reader). Assays were performed in duplicate.
The test system of data set [4] is Schizosaccharomyces pombe. Description: S. pombe MIC assay (efflux effects). The conditions noted are these: for MIC: Schizosaccharomyces pombe.
The subject of data set [5] is C. neoformans. The data set can be described thus: Minimum inhibitory concentration (MIC): disc diffusion and broth microdilution. (In general: Agar diffusion results depend on both activity and mobility in agar.)
Procedure: Antifungal activity was determined by measuring minimum inhibitory concentrations (MIC) of C. neoformans by two methods: a solid medium disc diffusion assay and broth microdilution assay.
Disc diffusion assay. Overnight cultures of C. neoformans (about 18 hours) were normalized to OD600 0.6, diluted 1/10, and 200 μL of each sample were spread onto either a YPD or YPGal (yeast extract-peptone medium with 3% galactose) plate using sterile glass beads. After drying, 10 μL of compound or solvent control (DMSO) was added to sterile 6 mm filter discs on each plate. Plates were incubated for 48 hours at 37° C.
Minimum inhibitory concentration (MIC) assays. C. neoformans: Overnight cultures (˜18 h) of C. neoformans strains incubated in YPD medium were diluted to 500 cells/ml in RPMI medium buffered with MOPS. Cells were aliquoted (200 μL/well) in black-wall, clear-bottom 96-wells plates (Greiner). Compound stock solutions in DMSO ranged from 9 μM to 20 mM, and added to 200 μL cell suspension aliquoted in 96-well plates. Final aqueous concentrations ranged from 200 μM to 0.09 μM, limiting DMSO to 1%. After 48-hr incubation at 37° C. or 30° C. for 48 h, 10% AlamarBlue (BioRad) was added. The end-point fluorescence intensity of reduced AlamarBlue was measured using a fluorescence plate reader (FLUORStar Optima plate reader) at the time point the indicator turned from blue to pink in healthy control cells.^51 Assays were performed in duplicate.
A further data set has as its target CnFTase (Cryptococcus neoformans, UniProt J9VSJ6+T2BPA1). Description: CnFTase steady-state kinetics fit to competitive/uncompetitive/mixed inhibition models. The conditions noted are these: for inhibition mode: with respect to FPP.
Data set [6] has as its target CnFTase (C. neoformans farnesyl transferase, α/β heterodimer) (Cryptococcus neoformans, UniProt J9VSJ6+T2BPA1). The data set can be described thus: CnFTase activity assay: farnesylation of a dansylated (fluorescent) peptide, inhibitor concentration giving half-maximal enzyme rates at 1 μM FPP (1μMIC50). The conditions noted are these: read-out: CnFTase IC50 (1μMIC50), condition A: 20 nM CnFTase, dansyl-GCVVM 0.62 μM, Tris-HCl pH 7.5, ZnCl2 12.5 μM, 2.5% DMSO, room temperature, triplicate.
Procedure: CnFTase activity assay. […] Final CnFTase concentrations (from 5× or 10× stocks in 20 mM Tris-HCl pH7.5, 20 mM NaCl, 5 μM ZnCl2, 1 mM TCEP, 1 mg/mL BSA): A, 20 nM; B: 4.4, 6.7, 10 nM triplets. […] For experiments that included phosphate, pH 7.5 stock was added to the desired final concentration. […] Data for determining ^1μMIC50 values (condition A) was collected in triplicate. Initial rates, vo, were extracted by fitting a straight line to the initial to tmax seconds of the reaction progress curves, where tmax values were selected by inspection and entered into curator tables for automated analysis. 1μMIC50 were determined by fitting a single-site Langmuir ligand-binding isotherm to the dependence of vo on inhibitor concentration (2, see below). All other experiments (condition B) all other experiments (condition B) used three different CnFTase concentrations, collecting progress curves as a function of FPP, inhibitor, and phosphate concentrations. The resulting triplet of progress curves was used to extract vo values automatically by minimizing
If x is an inhibitor concentration, then IC50=Ka^−1. […] In general, baseline signals, σ, (α or β) can be constant, or linear functions of ligand concentration x

The subject of data set [7] is C. neoformans FTase (CnFTase). Description: CnFTase activity assay, farnesylation of a fluorescent (dansylated) peptide, 1μMIC50. The class given is biochemical, Cryptococcus neoformans. Here is the method:
The library of 23 compounds contained leads with 60- to 150-fold enhanced ^1μMIC50 values.
CnFTase activity assay. The farnesyl transferase activity was measured by measuring the time dependence of the fluorescence emission intensity increase due to farnesylation of a dansylated peptide (Cassidy, P. B, et al., Methods Enzymol, 1995, 250, 30-43). Measurements were taken at room temperature in a 96-well black polystyrene, half area, flat bottom, non-binding surface plate using a SpectraMax M5e plate reader (excitation wavelength, 340 nm; emission wavelength 525 nm; emission high-pass filter, 455 nm). […] Final CnFTase concentrations (from 5× or 10× stocks in 20 mM Tris-HCl pH7.5, 20 mM NaCl, 5 μM ZnCl2, 1 mM TCEP, 1 mg/mL BSA): A, 20 nM; B: 4.4, 6.7, 10 nM triplets. […] For experiments that included phosphate, pH 7.5 stock was added to the desired final concentration. Data was analyzed using Python scripts for the Biomolecular Computing (BMC) package, included in the Dryad electronic repository. Data for determining ^1μMIC50 values (condition A) was collected in triplicate. Initial rates, vo, were extracted by fitting a straight line to the initial to tmax seconds of the reaction progress curves, where tmax values were selected by inspection and entered into curator tables for automated analysis. 1μMIC50 were determined by fitting a single-site Langmuir ligand-binding isotherm to the dependence of vo on inhibitor concentration (2, see below). All other experiments (condition B) […] used three different CnFTase concentrations, collecting progress curves as a function of FPP, inhibitor, and phosphate concentrations. The resulting triplet of progress curves was used to extract vo values automatically by minimizing
Single-site binding isotherms. Signals, S, resulting from a binding reaction were fit to
where α and β are the baselines associated with the apo-protein and its ligand complex, respectively, and y fractional occupancy of the binding site
If x is an inhibitor concentration, then IC50=Ka^−1. For Michaelis-Menten analysis 2 is reduced to a standard form (Bahar, I.; Jernigan, R. L.; Dill, K. A. Protein Actions, principles & modeling. Garland Science: 2017) with S=vo (initial rates), α=0, β=Vmax (maximal velocity), and KM=Ka^−1 (substrate dissociation constant). In general, baseline signals, σ, (α or β) can be constant, or linear functions of ligand concentration x

Data set [8] relates to C. neoformans FTase (CnFTase). The conditions noted are these: Hast et al. 2011; cited from earlier work.
Data set [9] concerns C. neoformans. The conditions noted are these: cited from earlier work.

≈ marks a conversion by molar mass, not a printed value. Entries after “also recorded” stand apart in the source; their conditions may differ. Read-outs that look alike come from different tables or passages of the source.

Chain of CnFTase (J9VSJ6 entry or part of it): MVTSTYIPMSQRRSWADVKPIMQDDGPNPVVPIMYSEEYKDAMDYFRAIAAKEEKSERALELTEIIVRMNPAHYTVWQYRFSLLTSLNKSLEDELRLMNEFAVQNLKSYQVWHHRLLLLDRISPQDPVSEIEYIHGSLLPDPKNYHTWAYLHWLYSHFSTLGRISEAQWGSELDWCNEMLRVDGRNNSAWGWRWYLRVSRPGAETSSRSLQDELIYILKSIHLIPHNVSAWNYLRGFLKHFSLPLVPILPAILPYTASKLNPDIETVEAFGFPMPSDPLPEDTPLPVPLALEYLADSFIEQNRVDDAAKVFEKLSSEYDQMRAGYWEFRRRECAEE
Chain of CnFTase (T2BPA1 entry or part of it): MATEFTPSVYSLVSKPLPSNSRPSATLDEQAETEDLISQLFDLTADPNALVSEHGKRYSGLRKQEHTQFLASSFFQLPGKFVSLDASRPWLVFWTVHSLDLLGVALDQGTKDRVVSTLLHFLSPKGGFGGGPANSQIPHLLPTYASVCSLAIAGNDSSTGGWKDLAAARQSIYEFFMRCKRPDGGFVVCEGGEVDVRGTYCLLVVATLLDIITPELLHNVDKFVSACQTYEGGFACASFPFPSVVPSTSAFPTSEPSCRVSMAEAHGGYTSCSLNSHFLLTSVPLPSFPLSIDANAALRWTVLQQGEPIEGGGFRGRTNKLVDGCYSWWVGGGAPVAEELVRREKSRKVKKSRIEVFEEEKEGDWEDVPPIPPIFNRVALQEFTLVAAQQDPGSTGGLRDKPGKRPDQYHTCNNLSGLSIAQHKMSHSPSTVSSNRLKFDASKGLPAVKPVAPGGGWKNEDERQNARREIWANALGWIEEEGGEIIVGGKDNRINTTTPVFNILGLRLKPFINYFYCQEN
Chain of CnFTase (C. neoformans farnesyl transferase, α/β heterodimer) (J9VSJ6 entry or part of it): as the sequence (J9VSJ6 entry or part of it) above
Chain of CnFTase (C. neoformans farnesyl transferase, α/β heterodimer) (T2BPA1 entry or part of it): as the sequence (T2BPA1 entry or part of it) above

For the compound `CCCC[C@H]1CN(c2cccc(OC(F)(F)F)c2)C(=O)CN1Cc1cncn1Cc1ccc(Br)cc1` [Compound 2f, (S)-4-((1-(4-Bromobenzyl)-1H-imidazol-5-yl)methyl)-5-butyl-1-(3-(trifluoromethoxy)phenyl)piperazin-2-one], the Gfp-Ras1 localization result in data set [1] was “remains in the cytoplasm; also recorded: does not localize to the plasma membrane”. The “effect of CnFTase (Ram1) over-expression on antifungal activity” value in [2] is reported as “negates 2f antifungal activity; also recorded: negated antifungal activity”. The “IC50 on mammalian FTase, worse than on the fungal enzyme” value against mammalian FTase is on record as “about 30 fold”. In addition, the biofilm inhibition entry with C. neoformans biofilms was “inhibits C. neoformans biofilms”. Besides, the MIC in data set [3] was 200 µM (≈ 113 µg/mL); in data set [4] (efflux-defective strain MJ-1682), 1.5 µM (≈ 0.848 µg/mL); in data set [4] (wild-type S. pombe), 12.5 µM (≈ 7.07 µg/mL); in the data set on C. neoformans [5] (Cryptococcus neoformans) it was 3 to 6 µM (≈ 1.7 to 3.39 µg/mL). The “MIC improvement in efflux-defective strain” value in data set [4] (MJ-1682 vs wild-type) is recorded as “eight-fold”. For the same compound, the “improvement of competitive affinity in the H state” value on CnFTase (H state vs L state) is recorded as about 100 fold. Besides, the “competitive affinity better than the uncompetitive value” on CnFTase (H state, 10 mM phosphate) is reported as about 170 fold. For the same compound, the Ki on CnFTase (HKU, uncompetitive inhibitor affinity (dissociation constant), H state, 10 mM phosphate (H state)) is 0.5 µM; on CnFTase (LKU, uncompetitive inhibitor affinity (dissociation constant), L state, absence of phosphate (L state)), 0.75 µM; on CnFTase (read-out: HKC, competitive inhibitor affinity (dissociation constant), H state, 10 mM phosphate (H state)), 0.003 µM; on CnFTase (read-out: LKC, competitive inhibitor affinity (dissociation constant), L state, absence of phosphate (L state)) it was 0.32 µM. Moreover, the inhibition mode result at CnFTase is “mixture of two binding modes: uncompetitive like Compound 2q, and a competitive mode that displaces FPP”. Moreover, the IC50 in data set [6] stood at 0.19 ± 0.06 µM.
Take `CCCC[C@H]1CN(c2cccc(OC(F)(F)F)c2)C(=O)CN1Cc1cncn1Cc1ccc(C#N)c(F)c1` [Compound 2q, (S)-4-((5-((2-Butyl-5-oxo-4-(3-(trifluoromethoxy)-phenyl)piperazin-1-yl)methyl)-1H-imidazol-1-yl)methyl)-2-fluorobenzonitrile]: the “improvement of 1μMIC50 over L-778,123” value in data set [7] (1 μM FPP, relative to L-778,123) turned out to be 150 fold. The “change of affinity relative to the comparator analogue (cf.)” value in [7] (pairwise comparison of analogues differing in one R group) was determined as 9 fold. Moreover, the antifungal activity entry in the data set with C. neoformans [5] (C. neoformans) was “barely exhibited antifungal activity”. Besides, at CnFTase, the Ki came out at 0.004 µM and the inhibition mode entry is given as “purely uncompetitive inhibitor”. Also, on CnFTase (H state vs L state), the “improvement of uncompetitive binding affinity in the H state” value was about 10%.
Take `N#Cc1ccc(Cn2cncc2CN2CCN(c3cccc(Cl)c3)C(=O)C2)cc1` [L-778,123]: the “inhibition of C. neoformans FTase (CnFTase)” value in data set [8] is given as “modest inhibition”. The antifungal activity entry with C. neoformans [9] (Hast et al. 2011) is “did not have antifungal activity”.
Consider `OC(Cn1cncn1)(Cn1cncn1)c1ccc(F)cc1F` [fluconazole], for which, in the data set with C. neoformans [9] (C. neoformans, Bongomin et al. 2018), the MIC is at least 8 mg/L.
